One substance from patent US5164295A, “Method for identifying amyloid protein-extracellular matrix protein affinity altering compounds” (The Upjohn Company, priority 1991, dated 1992) can be followed below.

For one assay, the target named is AAP770 /s. Kind of assay: ELISA: binding of free HSPG to immobilized AAP770 /s. As to conditions: absence of test compounds, mean ± SD, read-out: Kd of HSPG complex with AAP770 /s. The protocol:
(§1) To study the interaction between HSPG and either AAP770 /s, AAP751 /s, AAP695 /s or fibronectin, the AAP proteins and fibronectin were individually immobilized on polystyrene wells and incubated with increasing concentrations of purified HSPG. Fibronectin was used as a test protein because of its known affinity for HSPG. […] To address this concern, the purified protein core of HSPG in place of the intact proteoglycan was utilized to examine the role of the protein component.
(§2) The assay used in studying the interaction between HSPG and protein ligands was an ELISA technique. […] Finally, after further washing, the bound antibodies were detected by adding an alkaline phosphatase substrate solution (100 μl) containing 2 mg/ml p-nitrophenyl phosphate, 0.1 mM ZnCl2, 1 mM MgCl2 and 100 mM glycine pH 10. […] The absorbance of the released p-nitrophenol was measured at 405 nm with a Titertek Multiscan/MCC 340 (Flow Lab. Ltd.). The amounts of HSPG bound were determined by the net OD405 after substracting the OD from the blank wells in which the HSPG incubation step was omitted. When the actual amounts of HSPG bound were to be calculated, a set of standards (0.05-50 ng/well) of HSPG in NaHCO3 buffer were pre-coated into wells on the same plates as the test proteins. […]
(ELISA stands for enzyme-linked immunosorbent assay.)

The target in the next assay is AAP695 /s. The experiment in a line: ELISA: binding of free HSPG (intact or core protein) to immobilized AAP695 /s. How it is done: as §1
(§3) The assay used in studying the interaction between HSPG and protein ligands was an ELISA technique. Briefly, polystyrene micro-titer plates (Linbro, Flow Lab Inc.) were coated with a 100 μl solution, containing 1 μg/ml of the protein of interest (one of the three forms of AAP or fibronectin) in 20 mM NaHCO3 buffer pH 9.6. After incubation overnight at 4° C., the plates were rinsed with 0.15M NaCl, 20 mM Tris-Cl pH 7.5 (TBS). The plates were then incubated with 150 μl of 1% BSA in TBS for 2 hours at 37° C. to block the residual hydrophobic surface on the wells. After rinsing with TBS containing 0.05% (w/v) Tween 20 (TBS-Tween), 100 μl of various concentrations of HSPG in TBS-Tween were added. The plates were left overnight at 4° C., to permit maximum binding of HSPG to the coated proteins. The plates were then washed extensively and incubated for 2 hours at 37° C., with 100 μl of anti-HSPG diluted in TBS-Tween containing 0.1% BSA. […] Finally, after further washing, the bound antibodies were detected by adding an alkaline phosphatase substrate solution (100 μl) containing 2 mg/ml p-nitrophenyl phosphate, 0.1 mM ZnCl2, 1 mM MgCl2 and 100 mM glycine pH 10. […] The absorbance of the released p-nitrophenol was measured at 405 nm with a Titertek Multiscan/MCC 340 (Flow Lab. Ltd.). The amounts of HSPG bound were determined by the net OD405 after substracting the OD from the blank wells in which the HSPG incubation step was omitted. When the actual amounts of HSPG bound were to be calculated, a set of standards (0.05-50 ng/well) of HSPG in NaHCO3 buffer were pre-coated into wells on the same plates as the test proteins. […] The actual amounts of HSPG bound to the test proteins were calculated from the OD405 standard curve produced by the HSPG standards using a Titersoft II E.J.A. software program (Flow Lab. Ltd.). […]
To determine the Kd of the protein-HSPG complex, the binding data were analyzed assuming a thermodynamic equilibrium for the formation of the complex, B, from the ligand in solution, HSPG, and the uncomplexed protein adsorbed to the microtiter well, R, according to the equation: [formula] Due to the nature of the experimental design, nonspecific binding could not be measured directly. […]

The target in another assay is fibronectin. The experiment in a line: ELISA: binding of free HSPG (intact or core protein) to immobilized fibronectin. More on the design: species or system bovine. Particulars: absence of test compounds; mean ± SD; read-out: Kd of HSPG (intact or core protein) complex with fibronectin.
Text: Fibronectin (from bovine plasma), heparin (grade II from porcine intestinal mucosa, average molecular weight=[…]), heparan sulfate, chondroitin sulfate, dextran sulfate, BSA, and alkaline phosphatase substrate were obtained from Sigma, St. Louis, Mo. Alkaline phosphatase conjugated goat anti-rabbit IgG was obtained from Boehringer-Manneheim, and heparitinase from ICN Biochemicals.
To study the interaction between HSPG and either AAP770 /s, AAP751 /s, AAP695 /s or fibronectin, the AAP proteins and fibronectin were individually immobilized on polystyrene wells and incubated with increasing concentrations of purified HSPG. Fibronectin was used as a test protein because of its known affinity for HSPG. […]
as §2, with “omitted.” for “omitted. When the actual amounts of HSPG bound were to be calculated, a set of standards (0.05-50 ng/well) of HSPG in NaHCO3 buffer were pre-coated into wells on the same plates as the test proteins.”

Another assay has as its target AAP751 /s. The experiment in a line: ELISA: binding of free HSPG (intact or core protein) to immobilized AAP751 /s. As to conditions: for Kd: absence of test compounds, mean ± SD, read-out: Kd of HSPG (intact or core protein) complex with AAP751 /s. How it is done:
as §1
as §3, with “added.” for “added. The plates were left overnight at 4° C., to permit maximum binding of HSPG to the coated proteins. The plates were then washed extensively and incubated for 2 hours at 37° C., with 100 μl of anti-HSPG diluted in TBS-Tween containing 0.1% BSA.”

A further assay deals with BSA. Kind of assay: ELISA control: binding of HSPG to BSA coated wells. More on the design: species or system bovine. How it is done:
The assay used in studying the interaction between HSPG and protein ligands was an ELISA technique. Briefly, polystyrene micro-titer plates (Linbro, Flow Lab Inc.) were coated with a 100 μl solution, containing 1 μg/ml of the protein of interest (one of the three forms of AAP or fibronectin) in 20 mM NaHCO3 buffer pH 9.6. After incubation overnight at 4° C., the plates were rinsed with 0.15M NaCl, 20 mM Tris-Cl pH 7.5 (TBS). The plates were then incubated with 150 μl of 1% BSA in TBS for 2 hours at 37° C. to block the residual hydrophobic surface on the wells. After rinsing with TBS containing 0.05% (w/v) Tween 20 (TBS-Tween), 100 μl of various concentrations of HSPG in TBS-Tween were added. […] Finally, after further washing, the bound antibodies were detected by adding an alkaline phosphatase substrate solution (100 μl) containing 2 mg/ml p-nitrophenyl phosphate, 0.1 mM ZnCl2, 1 mM MgCl2 and 100 mM glycine pH 10. […] The absorbance of the released p-nitrophenol was measured at 405 nm with a Titertek Multiscan/MCC 340 (Flow Lab. Ltd.). The amounts of HSPG bound were determined by the net OD405 after substracting the OD from the blank wells in which the HSPG incubation step was omitted. When the actual amounts of HSPG bound were to be calculated, a set of standards (0.05-50 ng/well) of HSPG in NaHCO3 buffer were pre-coated into wells on the same plates as the test proteins. […]

Several values for one entry are separate records, joined by “and”; a condition that tells them apart may be missing. Identical values can stand only once. Like-named read-outs stand apart in the source and are kept apart here.

In the case of “heparan sulfate proteoglycan [Intact HSPG]”, the Kd on AAP770 /s (listed as HSPG) is 9.13 nM and 9 to 10 nM; on AAP770 /s it was 9.13 ± 1.06 nM; on AAP695 /s (absence of test compounds, mean ± SD, listed as HSPG, read-out: Kd of HSPG (intact or core protein) complex with AAP695 /s) it was 0.88 nM and ~0.9 nM; at AAP695 /s (absence of test compounds, mean ± SD, listed as intact HSPG, read-out: Kd of HSPG (intact or core protein) complex with AAP695 /s), 0.9 ± 0.25 nM; at AAP695 /s (absence of test compounds, mean ± SD, read-out: Kd of HSPG (intact or core protein) complex with AAP695 /s), 0.88 ± 0.35 nM; at AAP695 /s (heparin 400 μg/ml, read-out: Kd of HSPG (intact or core protein) complex with AAP695 /s in presence of heparin) it was 3.56 ± 1.78 nM. Moreover, the Kd on fibronectin was 0.98 nM; at AAP751 /s (listed as HSPG), 10.2 nM and 9 to 10 nM; on AAP751 /s it was 10.2 ± 2.45 nM. For the same substance, the “Bmax, total binding capacity” value in the assay on AAP751 /s (typical experiment using AAP751 /s) is reported as 15.9±0.2 ng HSPG. Also, in the assay on BSA, the “binding of HSPG to BSA in comparison to the tested proteins” value is “negligible”.
